The test system of test [1] is 3-PGDH derived from AJ13324 strain. The experiment in a line: Feedback inhibition of 3-PGDH from AJ13324 by L-serine. Format: biochemical, Brevibacterium flavum. Particulars: crude enzyme solution; FIG. 1. As to the method: (§1) The activity of 3-PGDH can be determined, for example, by the measurement of a decrease in coenzyme NADH2 in a reverse reaction (E. Sugimoto and L. I. Pizer, JBC, 243, 2081, 1968) or synthesis of coenzyme NADH2 in a forward reaction (Salach H. J. Method in Enzymology, vol.9, 216-220, 1966) by absorbance at 340 nm.
(§2) Brevibacterium flavum AJ13324, AJ13325 and AJ13327 were each incubated on a bouillon agar medium at 30° C. for 24 hours and a loopful of each microorganism was inoculated in a 500 ml shaking flask containing 50 ml of a fermentation medium having the composition shown in Table 2. As a control, the parent strains Brevibacterium flavum ATCC 14067 and AJ13377 were inoculated as a same manner as described above. The medium for inoculation was adjusted to pH 5.5 with sodium hydroxide and autoclaved at 115° C. for 15 minutes. […]
(§3) The enzyme activity of 3-PGDH was measured by the method of Salach H. J. et al. (Method in Enzymology, vol 9, 216-220 (1966)).
(§4) More specifically, 0.4 ml of 0.015 M NAD, 0.12 ml of 0.25 M EDTA (pH 9, NaOH), 0.1 ml of 0.05 M glutathione (pH 6, KOH), 0.5 ml of 1 M hydrazine (pH 9, acetate), 0.6 ml of 1 M Tris (pH 9, HCl), a suitable concentration of L-serine (0 to 40 mM), and water to make 2.3 ml, warmed to 25° C. in advance, were added. […] After stirring, the absorbance at 340 nm of the reaction mixture was measured for 30 seconds. […]

The subject of test [2] is 3-PGDH derived from AJ13377 strain. As to the kind of experiment: Feedback inhibition of 3-PGDH from AJ13377 by L-serine. It counts as biochemical, Brevibacterium flavum. Conditions: crude enzyme solution; compared with wild type strain ATCC 14067; FIG. 1. As to the method:
as §1, §2, §3, §4

In test [3] the test system is 3-PGDH derived from AJ13327 strain. The experiment in a line: Feedback inhibition of 3-PGDH from AJ13327 by L-serine. Format: biochemical, Brevibacterium flavum. As to the method: as §1
Brevibacterium flavum AJ13324, AJ13325 and AJ13327 were each incubated on a bouillon agar medium at 30° C. for 24 hours and a loopful of each microorganism was inoculated in a 500 ml shaking flask containing 50 ml of a fermentation medium having the composition shown in Table 2. As a control, the parent strains Brevibacterium flavum ATCC 14067 and AJ13377 were inoculated as a same manner as described above. The medium for inoculation was adjusted to pH 5.5 with sodium hydroxide and autoclaved at 115° C. for 15 minutes.
After collecting cells from the culture broth of each strain, the cells were washed twice with physiological saline and suspended in 50 mM sodium phosphate buffer (pH 7.0) containing 2 mM dithiothreitol. After ice cooling, the suspension was subjected to a sonicator to fragment the cells and the resulting liquid was ultracentrifuged. The ultracentrifugaton was run at 45,000 rpm for 1 hour to obtain a crude enzyme solution.
as §3
[…] Then, 0.2 ml of the crude enzyme solution was added and the temperature was kept the same for 5 minutes. Thereafter, 0.5 ml of 0.1 M 3-PGA (3-phosphoglycerate disodium salt, pH 7, NaOH) was added. After stirring, the absorbance at 340 nm of the reaction mixture was measured for 30 seconds. The reaction was carried out at 25° C.
For the measurement of activity, Hitachi U-2000A spectrophotometer was used.

The test system of test [4] is 3-PGDH derived from ATCC14067 strain (wild type). As to the kind of experiment: Feedback inhibition of wild type 3-PGDH by L-serine. Conditions: wild type coryneform bacterium 3-PGDH; 10 mM L-serine. Format: biochemical, Brevibacterium flavum. As to the method:
as §1, §2, §3, §4

In test [5] the test system is Brevibacterium flavum AJ13325. The experiment in a line: Growth of β-(2-thienyl)-DL-alanine resistant strains in the presence of β-(2-thienyl)-DL-alanine. Format: cell-based. Particulars: 0.25 g/L of β-(2-thienyl)-DL-alanine. As to the method:
Similarly, the term “β-(2-thienyl)-DL-alanine resistance” refers to the property that a bacterium grows faster than the wild type in a medium containing β-(2-thienyl)-DL-alanine. For example, those strains that form colonies on a solid medium containing 0.25 g/L of β-(2-thienyl)-DL-alanine at 30° C. within 4 to 5 days are said to have β-(2-thienyl)-DL-alanine resistance.
To select B-(2-thienyl)-DL-alanine resistant strains from NG treated strains using Brevibacterium flavum AJ13377 as a parent strain, Brevibacterium flavum AJ13377 cells were NG treated and washed before their inoculation on a minimal medium for selection. The minimal medium for selection was a medium that contained 20 g of glucose, 1 g of ammonium sulfate, 1 g of potassium dihydrogen phosphate, 2.5 g of urea, 0.4 g of magnesium sulfate heptahydrate, 0.01 g of iron (II) sulfate heptahydrate, 0.01 g of manganese sulfate tetra- to pentahydrate, 50 μg of biotin, 200 μg of thiamin hydrochloride, 200 μg of nicotinic acid amide, and 250 mg of β-(2-thienyl)-DL-alanine per liter of distilled water. The NG treated mutant was incubated in the above-described medium at 30° C. for 5 to 10 days. The cell culture thus obtained was spread on a bouillon agar medium and incubated at 30° C. for 24 hours for colony formation. β-(2-Thienyl)-DL-alanine resistant strains were obtained from the strains that formed colonies. […]

For test [6], the system named is Brevibacterium flavum AJ13324 and AJ13327. The experiment in a line: Growth of azaserine resistant strains in the presence of azaserine. It counts as cell-based. Particulars: 0.25 g/L of azaserine. As to the method: The term “azaserine resistance” refers to the property that a bacterium grows faster than the wild type in a medium containing azaserine. For example, those strains that form colonies on a solid medium containing 0.25 g/L of azaserine at 30° C. within 4 to 5 days are said to have azaserine resistance.
To select azaserine resistant strains from NG treated strains using Brevibacterium flavum AJ13377 as a parent strain, NG treated Brevibacterium flavum AJ13377 cells after washed were inoculated on a minimal medium for selection. The minimal medium for selection was a medium that contained 20 g of glucose, 1 g of ammonium sulfate, 1 g of potassium dihydrogen phosphate, 2.5 g of urea, 0.4 g of magnesium sulfate heptahydrate, 0.01 g of iron (II) sulfate heptahydrate, 0.01 g of manganese sulfate tetra- to pentahydrate, 50 μg of biotin, 200 μg of thiamin hydrochloride, 200 μg of nicotinic acid amide, and 250 mg of azaserine per liter of distilled water. The NG treated mutant was incubated in the above-described medium at 30° C. for 5 to 10 days. The cell culture thus obtained was spread on a bouillon agar medium and incubated at 30° C. for 24 hours for colony formation. Azaserine resistant strains were obtained from the strains that formed colonies. The mutants thus obtained included many strains that accumulated L-serine in considerable amounts at high yields. […]

`N[C@@H](CO)C(=O)O` [L-serine]: the “L-serine sensitivity of 3-PGDH” value in test [1] is “more relieved of L-serine sensitivity”; in test [2], “relieved of L-serine sensitivity”; in test [3] (crude enzyme solution, FIG. 1) it was “relieved of L-serine sensitivity greatly”. The “3-PGDH activity retained in the presence of L-serine (relative to absence of L-serine)” value in test [3] (80 mM L-serine) was ~100%. Moreover, the “feedback inhibition of 3-PGDH by L-serine” value in test [3] (80 mM L-serine, FIG. 1) is recorded as “completely desensitized”. The “3-PGDH activity in the presence of L-serine” value in test [4] is on record as “almost completely inhibited”.

As for `NC(Cc1cccs1)C(=O)O` (racemic) [β-(2-thienyl)-DL-alanine], the “growth in the presence of β-(2-thienyl)-DL-alanine” value in test [5] is listed as “able to grow”.

With `[N-]=[N+]=CC(=O)OC[C@H](N)C(=O)O` [azaserine], the “growth in the presence of azaserine” value in test [6] is reported as “able to grow”.
